Test results taken from patent US6325989A, “Form of dipeptidylpeptidase IV (CD26) found in human serum” (Dana-Farber Cancer Institute, Inc., priority 1995, dated 2001).
Residues, ends and D or L forms follow the SMILES beside them. *: point of attachment. pNA = O=[N+]([O-])c1ccc(N*)cc1

Key:
[1] = system: soluble serum DPPIV/CD26, 175 kDa form, purified from normal human serum; experiment: DPPIV activity assay (hydrolysis of Gly-Pro-pNA; Michaelis-Menten kinetics and inhibition); format: biochemical
Protocol: (§1) The DPPIV enzyme activities of the rsCD26 and serum DPPIV were analyzed by Michaelis-Menten kinetics by assessing kinetics of hydrolysis of substrate at different concentrations. […] To further exclude the possibility that we had purified irrelevant aminopeptidases which, working in concert or by sequential hydrolysis, could release the pNA chromophore from substrate, we tested a number of substrates which could be hydrolyzed by non-DPPIV aminopeptidases. One candidate for sequential hydrolysis is aminopeptidase M (3.4.11.2), but no hydrolysis of Ala-pNA, Arg-pNA or Leu-pNA was observed and activity by aminopolypeptidase (3.4.11.14) may be similarly excluded. The substrate succinyl-Gly-Pro-pNA was also not hydrolyzed. The only substrate apart from the dipeptide chromatogen Gly-Pro-pNA which could be hydrolyzed was Val-Ala-pNA, which was cleaved by both the serum DPPIV and rsCD26 (relative to rate of hydrolysis of Gly-Pro-pNA, hydrolysis of Val-Ala-pNA was 0.098 and 0.079, for rsCD26 and serum DPPIV, respectively). Although DPPIV primarily hydrolyses dipeptides with a proline in the penultimate position, it is well documented that alanine in the penultimate position may also render a dipeptide sequence susceptible to cleavage by DPPIV (8). […]
The primary substrate used for determining DPPIV activity in all assays was Gly-Pro-p-nitroanilide (Gly-Pro-pNA; Sigma), which is hydrolyzed by DPPIV to release pNA absorbing strongly at 405 nm. […] Inhibition of the hydrolysis of Gly-Pro-pNA was determined in the presence of the specific DPPIV inhibitor Diprotin A (Bachem, King of Prussia, Pa.). […] The pH optimum was determined substituting phosphate buffer (100 mM, pH4.5-pH9) in place of standard incubation buffer.
Serum DPPIV was prepared by isolating from 100 ml of pooled normal human male AB serum the fraction of protein precipitated by 50-70% saturated ammonium sulfate. […] The DPPIV activity was eluted by a 0-0.5M NaCl gradient in equilibration buffer and all DPPIV activity was found in the 10 mM-50 mM NaCl eluate (determined by conductance). […]

[2] = molecular target: T1, recombinant soluble CD26 (rsCD26), full extracellular domain of human T cell membrane CD26/DPPIV, 105 kDa form, from transfected CHO cells (Homo sapiens, UniProt P27487); experiment: as above; format: biochemical
T1 construct: The full extracellular domain of T cell membrane-expressed CD26 (rsCD26); made in house; host or cells: transfected CHO cells
Protocol: as §1, with “respectively).” for “respectively). Although DPPIV primarily hydrolyses dipeptides with a proline in the penultimate position, it is well documented that alanine in the penultimate position may also render a dipeptide sequence susceptible to cleavage by DPPIV (8).”
The primary substrate used for determining DPPIV activity in all assays was Gly-Pro-p-nitroanilide (Gly-Pro-pNA; Sigma), which is hydrolyzed by DPPIV to release pNA absorbing strongly at 405 nm. […] Inhibition of the hydrolysis of Gly-Pro-pNA was determined in the presence of the specific DPPIV inhibitor Diprotin A (Bachem, King of Prussia, Pa.). […]

[3] = Lineweaver-Burke transformation
[4] = unit defined at pH7.6 and 20° C.

T1 sequence (P27487 29-766 limits assumed): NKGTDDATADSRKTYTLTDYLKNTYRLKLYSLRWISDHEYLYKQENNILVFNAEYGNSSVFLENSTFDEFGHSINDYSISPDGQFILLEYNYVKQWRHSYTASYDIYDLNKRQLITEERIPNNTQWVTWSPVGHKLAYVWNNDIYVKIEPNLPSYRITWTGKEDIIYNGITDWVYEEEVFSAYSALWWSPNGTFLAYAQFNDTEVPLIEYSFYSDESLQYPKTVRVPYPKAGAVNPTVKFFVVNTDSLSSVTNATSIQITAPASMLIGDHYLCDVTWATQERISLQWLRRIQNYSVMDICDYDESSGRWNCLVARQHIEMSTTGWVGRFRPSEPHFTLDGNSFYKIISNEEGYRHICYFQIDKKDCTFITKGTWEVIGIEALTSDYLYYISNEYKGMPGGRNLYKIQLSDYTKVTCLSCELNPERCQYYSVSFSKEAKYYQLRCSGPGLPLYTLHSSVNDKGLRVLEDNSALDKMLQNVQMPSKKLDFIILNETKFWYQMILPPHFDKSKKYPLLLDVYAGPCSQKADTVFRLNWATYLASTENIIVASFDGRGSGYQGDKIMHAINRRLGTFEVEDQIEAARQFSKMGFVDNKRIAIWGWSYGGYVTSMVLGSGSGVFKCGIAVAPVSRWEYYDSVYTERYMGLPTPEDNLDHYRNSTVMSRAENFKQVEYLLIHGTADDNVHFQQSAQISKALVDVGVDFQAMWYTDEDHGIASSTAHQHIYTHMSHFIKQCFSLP

## CC[C@H](C)[C@H](N)C(=O)N1CCC[C@H]1C(=O)N[C@H](C(=O)O)[C@@H](C)CC [Diprotin A]
[1]; substrate Gly-Pro-pNA
  IC50: 250 µM

## NCC(=O)N1CCC[C@H]1C(=O)Nc1ccc([N+](=O)[O-])cc1 [Gly-Pro-pNA, Gly-Pro-p-nitroanilide] (H-Gly-Pro-pNA)
[2]; [3]
  Km: 280 µM
[2]; [4]
  Vmax, using Gly-Pro-pNA as substrate: 1.52 U/nmol rsCD26
[1]; [3]
  Km: 280 µM
[1]; [4]
  Vmax, using Gly-Pro-pNA as substrate: 0.65 U/nmol serum DPPIV
